Publication PMC12643529 (ACS Infectious Diseases, 2025)

How the values were obtained:
[1] = test system: Fmt6363T (human mitochondrial G-quadruplex); assay: FRET melting assay, Fmt6363T; assay type: binding; settings: ligand 10 μM, oligonucleotide 200 nM, 10 mM KCl
[2] = test system: FEbr1T (T. brucei G-quadruplex); assay: FRET melting assay, FEbr1T; assay type: binding; settings: ligand 10 μM, oligonucleotide 200 nM, 10 mM KCl
[3] = test system: F10T (hairpin duplex DNA); assay type: binding; settings: ligand 10 μM, oligonucleotide 200 nM, 10 mM KCl
[4] = test system: F21T Na+ (human telomeric G-quadruplex, sodium buffer); assay type: binding; settings: ligand 10 μM, oligonucleotide 200 nM, 100 mM NaCl
[5] = test system: F21T K+ (human telomeric G-quadruplex, potassium buffer); assay type: binding; settings: ligand 10 μM, oligonucleotide 200 nM, 10 mM KCl
HeLa cells = assay: alamarBlue antiproliferative assay, HeLa; assay type: cell-based, human; settings: for IC50: Homo sapiens, HeLa, 72 h, alamarBlue; for selectivity index (SI) HeLa: SI = IC50 MRC-5/IC50 HeLa
MRC-5 cells = assay: alamarBlue cytotoxicity assay, MRC-5; assay type: cell-based; settings: 72 h
[6] = test system: promastigote form of L. major; assay: MTT-based antileishmanial assay, promastigotes; assay type: cell-based, Leishmania major; settings: for IC50: promastigotes, 72 h, MTT, error as σ; for selectivity index (SI) L. major: SI = IC50 MRC-5/IC50 L. major promastigotes
Protocol: The antileishmanial activity of the compounds against the promastigote form of L. major, the […] was determined using an MTT-based assay (Sigma-Aldrich). Stock solutions of the compounds were prepared in DMSO with the final DMSO percentage in each well maintained below 1%. 4 × 10^6 parasites per mL were incubated at 28 °C in 96-well plates (50 μL/well) either alone or in the presence of increasing concentrations of compounds DMSO for 72 h. After the incubation period, 10 μL of MTT (5 mg/mL) was added to each well, and the parasites were incubated for 4 h at 28 °C. Subsequently, cell lysis was performed using 50 μL/well of 20% SDS. […] Data were presented as the average of at least three independent measurements, each conducted under triplicate conditions. […] “single marker” […] S7

HT-29 cells = assay: alamarBlue antiproliferative assay, HT-29; assay type: cell-based, human; settings: for IC50: Homo sapiens, HT-29, 72 h, alamarBlue; for selectivity index (SI) HT-29: SI = IC50 MRC-5/IC50 HT-29
[7] = test system: FMycT (DNA, G4) TTGAGGGTGGGTAGGGTGGGTAA; assay: FRET melting; settings: K+ (1 mM KCl), 99 mM LiCl; 10 mM Li cacodylate; compound 10 µM, DNA 200 nM
[8] = test system: FMycT (c-Myc promoter G4); assay: FRET melting assay, FMycT; assay type: binding; settings: ligand 10 μM, oligonucleotide 200 nM, 1 mM KCl
[9] = test system: F21T (DNA, G4) GGGTTAGGGTTAGGGTTAGGG; assay: FRET melting; settings: 10 mM Li cacodylate, compound 10 µM, DNA 200 nM
[10] = test system: bloodstream form of T. brucei; assay: alamarBlue (resazurin) antitrypanosomal assay; assay type: cell-based, Trypanosoma brucei; settings: for IC50: bloodstream form, 72 h, alamarBlue/resazurin, error as σ; for selectivity index (SI) T. brucei: SI = IC50 MRC-5/IC50 T. brucei (resazurin assay)
THP-1 cells = assay: alamarBlue cytotoxicity assay, PMA-differentiated THP-1; assay type: cell-based, human; settings: PMA-differentiated THP-1, 72 h
[11] = test system: intracellular amastigote form of L. major; assay: Luciferase assay, intracellular amastigotes in THP-1 macrophages; assay type: cell-based, Leishmania major; settings: for IC50: intracellular amastigotes in THP-1 macrophages, 72 h, luciferase; for selectivity index (SI) THP-1: SI = IC50 THP-1/IC50 L. major amastigotes
Protocol: The antileishmanial activity of the compounds against the intracellular form of L. major was evaluated using the Luciferase Assay System kit from Promega. THP-1 cells were seeded at a density of 3 × 10^5 cells/mL in 96-well plates (100 μL/well) and treated with 20 ng/mL PMA (phorbol 12-myristate 13-acetate, Sigma) for 48 h to induce differentiation. Postdifferentiation, the cells were washed, and fresh medium was added (100 μL/well) before being reincubated. Following an additional 24 h, the wells were washed, and 50 μL of L. major parasites at a density of 1.5 × 10^6 parasites/mL (suspended in RPMI-1640 medium 5% hiFBS and 5% penicillin/streptomycin) were added to the wells. The plates were then incubated at 35 °C in 5% CO2. After 24 h, the wells were washed three times with PBS, and fresh medium with increasing concentrations of compounds was added (100 μL/well). After another 72 h of incubation, the cells were then treated with 25 μL of lysis buffer and stored at −80 °C. Following 24 h, 25 μL of luciferase enzyme substrate was added to each well, and the luciferase activity of the amastigotes was determined using a TECAN Infinite F200 microplate reader. […] Data were presented as the average of at least three independent measurements, each conducted under triplicate conditions.
Parasite and cell culturing […]
Leishmania major (MHOM/IL/80/Friedlin) promastigotes and its derivative luminescent strain L. major LucRE9 with the luciferase gene integrated into the parasite genome (LUC) were cultured at 28 °C, 5 % CO2 in modified RPMI-1640 medium (Invitrogen, Carlsbad, CA) supplemented with 10 % hiFBS6, including […] blasticidin in the LucRE9 strain. 7 Parasites were maintained in culture in their […] growth phase (below 2 million T. brucei parasites per mL, ,10 million L. major parasites per mL for promastigotes experiments), and in the stationary phase , 20 million L. major parasites per mL for THP -1 infection experiments.
MRC-5 cell line (human lung fibroblast) was grown in monolayer at 37 °C, 5 % CO2 in DMEM medium (1 g/L glucose) supplemented with 10% hiFBS, 100 U/mL penicillin, […] streptomycin and 2 mM L-glutamine.8
THP-1 cells (human monocytic cell line) were maintained in RPMI-1640 medium supplemented with 10% heat-inactivated fetal bovine serum (hiFBS) and 5 % penicillin/streptomycin (37 °C, 5 % CO2, and 100 % humidity). […]

[12] = test system: FEbr1T (DNA, G4) GGGCAGGGGGTGATGGGGAGGAGCCAGGG; assay: FRET melting; settings: K+ (10 mM KCl), 90 mM LiCl; 10 mM Li cacodylate; compound 10 µM, DNA 200 nM

Row | SMILES | ΔTm Fmt6363T [1] [°C] | ΔTm FEbr1T [2] [°C] | ΔTm F10T [3] [°C] | ΔTm F21T Na+ [4] [°C] | ΔTm F21T K+ [5] [°C] | IC50 (HeLa cells) [µM] | selectivity index (SI) HeLa (HeLa cells) | IC50 (MRC-5 cells; MRC5, human lung fibroblasts) [µM] | IC50 ([6]; Leishmania major) [µM] | selectivity index (SI) L. major [6] | IC50 (HT-29 cells) [µM] | selectivity index (SI) HT-29 (HT-29 cells) | ΔTm FMycT [8] [°C] | IC50 ([10]; Trypanosoma brucei) [µM] | selectivity index (SI) T. brucei [10] | further results
1 | CN(C)c1ccc(/C=C/c2sc3ccccc3[n+]2C)c2ccccc12.[I-] [2g] | 7.7 ± 0.3 | 8.9 ± 0.5 | 0.4 ± 0.1 | 3.4 ± 0.5 | 9.7 ± 0.2 | 29.1 ± 1.05 | 0.14 | 4.01 ± 0.09 | 0.17 ± 0.04 | 23.9 | 89.5 ± 9.55 | 0.04 | 3.0 ± 1.1 | 0.02 ± 0.015 |  | ΔTm [7]: 3.0 ± 1.1 °C; ΔTm ([9]; Na+ (100 mM NaCl)): 3.4 ± 0.5 °C
2 | C[C@@H]1[C@H](O)[C@@H](C)/C=C/C=C/C=C/C=C/C=C/C=C/C=C/[C@H](O[C@@H]2O[C@H](C)[C@@H](O)[C@H](N)[C@@H]2O)C[C@@H]2O[C@](O)(C[C@@H](O)C[C@@H](O)[C@H](O)CC[C@@H](O)C[C@@H](O)CC(=O)O[C@H]1C)C[C@H](O)[C@H]2C(=O)O [AmB, Amphotericin B] |  |  |  |  |  |  |  |  | 1.92 ± 0.05 |  |  |  |  |  |  | IC50 (THP-1 cells; Homo sapiens): 9.89 ± 1.98 µM; IC50 ([11]; Leishmania major): 4.41 ± 1.96 µM; selectivity index (SI) THP-1 [11]: 2.24
3 | COS(=O)(=O)[O-].Cc1cc2c3c([n+](C)c4ccc(F)cc4c3c1)-c1cc(F)ccc1N2C [RHPS4, 3,11-Difluoro-6,8,13-Trimethyl-8H-Quino[4,3,2-Kl]Acridinium Methosulfate, reference compound] |  |  |  |  |  |  |  |  |  | 93.64 |  |  |  |  | 11.77 | IC50 (THP-1 cells): 214 ± 3.36 µM; IC50 (MRC-5 cells; human lung fibroblasts): 4.12 ± 0.52 µM; IC50 [6]: 0.044 ± 0.015 µM; IC50 [10]: 0.35 ± 0.06 µM; selectivity index (SI) MRC-5 ([11]; SI = IC50 MRC-5/IC50 L. major amastigotes): 137.33; selectivity index (SI) THP-1 [11]: 7,131; IC50 [11]: 0.03 ± 0.02 µM
4 | C[n+]1c(/C=C/c2ccccc2)sc2ccccc21.[I-] [compound 2a] |  |  |  |  |  |  |  | 2.02 ± 0.12 | 0.48 ± 0.11 | 4.2 |  |  |  | 0.37 ± 0.18 | 5.5 | 
5 | C[n+]1c(/C=C/c2ccc(N(c3ccccc3)c3ccccc3)cc2)sc2ccccc21.[I-] [compound 2c] | 10.2 ± 0.5 | 13.5 | 0.7 ± 0.1 | 9.4 ± 0.5 | 12.7 ± 0.4 | 8.89 ± 1.59 | 0.58 |  |  |  | 8.91 ± 0.88 | 0.58 | 8.6 ± 1.0 | 0.34 ± 0.13 |  | 
6 | C[n+]1c(/C=C/c2ccc(-c3ccc(-c4ccc(N(c5ccccc5)c5ccccc5)cc4)cc3)o2)sc2ccccc21.[I-] [compound 2d] | 18.5 ± 0.9 | 20.5 | 1.0 ± 0.1 | 22.9 ± 0.9 | 18.5 | 5.28 ± 0.11 | 0.62 | 3.24 ± 0.14 | 0.33 ± 0.017 | 9.8 | 3.79 ± 0.13 | 0.86 | 16.7 ± 0.7 | 0.01 ± 0.005 |  | ΔTm [12]: 20.5 ± 1.3 °C; ΔTm [7]: 16.7 ± 0.7 °C; ΔTm ([9]; K+ (10 mM KCl), 90 mM LiCl): 18.5 ± 1.9 °C; ΔTm ([9]; Na+ (100 mM NaCl)): 22.9 ± 0.9 °C
7 | Cn1cccc1/C=C/c1sc2ccccc2[n+]1C.[I-] [compound 2e] |  |  |  |  |  | 78 ± 8.26 | 0.12 | 9.4 ± 1.06 | 0.24 ± 0.029 | 39.6 | 76.4 ± 1.44 | 0.12 |  | 2.29 ± 0.31 | 4.1 | 
8 | Cn1cccc1-c1ccc(/C=C/c2sc3ccccc3[n+]2C)s1 [compound 2f] |  |  |  |  |  |  |  | 3.68 ± 0.17 | 0.61 ± 0.092 | 6.0 |  |  |  | 0.61 ± 0.045 | 6.0 | 
9 | C[n+]1c(/C=C/c2cc3c4c(c2)CCCN4CCC3)sc2ccccc21.[I-] [compound 2h] | 15.0 ± 0.4 | 14.1 | 0.9 ± 0.4 | 9.4 ± 0.3 | 16.9 | 0.84 ± 0.01 | 0.09 |  |  |  | 1 ± 0.16 | 0.08 | 12.6 ± 0.9 | 0.00026 ± 0.00017 |  | 
10 | C[n+]1c(/C=C/c2ccc(-c3ccc(N(c4ccccc4)c4ccccc4)cc3)s2)sc2ccccc21 [compound 2i] |  |  |  |  |  |  |  | 3.88 ± 0.17 | 0.045 ± 0.012 | 86.2 |  |  |  | 1.83 ± 0.06 | 2.12 | 
11 | CSc1ccc(OCc2ncc([N+](=O)[O-])n2C)cc1 [fexinidazole, reference compound] |  |  |  |  |  |  |  |  |  |  |  |  |  | 0.88 ± 0.02 |  | 
12 | CCCCCCCCCCCCCCCCOP(=O)([O-])OCC[N+](C)(C)C [miltefosine] |  |  |  |  |  |  |  |  | 5.71 ± 0.46 |  |  |  |  |  |  | IC50 (THP-1 cells; Homo sapiens): 55.19 ± 0.11 µM; IC50 ([11]; Leishmania major): 5.1 ± 0.56 µM; selectivity index (SI) THP-1 [11]: 10.82
13 | Cc1ccc(C(=O)Nc2ccc(S(=O)(=O)O)c3cc(S(=O)(=O)O)cc(S(=O)(=O)O)c23)cc1NC(=O)c1cccc(NC(=O)Nc2cccc(C(=O)Nc3cc(C(=O)Nc4ccc(S(=O)(=O)O)c5cc(S(=O)(=O)O)cc(S(=O)(=O)O)c45)ccc3C)c2)c1 [suramin, reference compound] |  |  |  |  |  |  |  |  |  |  |  |  |  | 0.0042 ± 0.0003 |  | 
